In publication PMC4005661 (2014):

Test system: c-myc (DNA, G4) TGAGGGTGGGTAGGGTGGGTAA
Assay: fluorescence light-up, plate reader
Details: 50 mM K+ (KCl); 50 mM Tris/HCl pH 7.5, room temperature; 1 µM strand, 0.5 µM ThT

fluorescence fold increase: 14 fold
SMILES: Cc1ccc2c(c1)sc(-c1ccc(N(C)C)cc1)[n+]2C
